Results published in patent US20220016060A1, “USE OF SODIUM 2-(3-PENTYLPHENYL)ACETATE IN THE TREATMENT OF ALSTRÖM SYNDROME” (LIMINAL BIOSCIENCES LIMITED, priority 2018, published 2022).
Where “and” joins values, the source holds several entries; their conditions need not be identical. Equal entries are not always repeated.

How the values were obtained:
Format in all cases: in vivo, human
[1] = system: ALMS patients; experiment: Non-Alcoholic Fatty Liver Disease (NAFLD) Fibrosis Score; conditions: for Change from Baseline NAFLD Score with an FPG > 5.6 mmol/L, Mean (SD) / Change from Baseline NAFLD Score with an FPG > 5.6 mmol/L, Median / NAFLD Fibrosis Score in Subjects with an FPG > 5.6 mmol/L: 800 mg daily oral; for NAFLD Fibrosis Score in Subjects with an FPG > 5.6 mmol/L: individual subjects
Protocol: (§1) The study was a Phase 2, single-centre, single-arm, open-label study of sodium 2-(3-pentylphenyl)acetate administered at a total daily oral dose of 800 mg for up to 72 weeks in subjects with ALMS was undertaken. The initial duration of the study was 24 weeks, and subjects were offered to enrol into an extension phase of […]. The schedule of study procedures for the enrolment, intervention, and assessments for participants is outlined in FIG. 1. Sodium 2-(3-pentylphenyl)acetate was formulated in soft gelatine capsules containing 200 mg of Sodium 2-(3-pentylphenyl)acetate (amorphous powder) per capsule, polyethylene glycol 400, National Formulary (NF), hydrochloric acid (for pH adjustment), and water. The effect of sodium 2-(3-pentylphenyl)acetate on liver histology in ALMS patients was also assessed by measuring the Non-Alcoholic Fatty Liver Disease (NAFLD) Fibrosis Score. Increased NAFLD fibrosis score may be associated with hepatic dysfunction.

[2] = system: ALMS patients; experiment: Albumin-to-creatinine ratio (ACR); conditions: for Change from Baseline ACR, Mean (SD) / Change from Baseline ACR, Median / ACR: 800 mg daily oral; for ACR: individual subjects, listed as sodium 2-(3-pentylphenypacetate)
Protocol: as §1, with “water. Albuminuria, the increase in excretion of urinary albumin, is marker of kidney damage and is assessed by measuring the ACR.” for “water.”, “kidney histology/damage” for “liver histology”, “was” for “was also”, “ACR.” for “Non-Alcoholic Fatty Liver Disease (NAFLD) Fibrosis Score. Increased NAFLD fibrosis score may be associated with hepatic dysfunction.”

[3] = system: ALMS patients; experiment: C-peptide; conditions: for Change from Baseline C-Peptide, Mean / Change from Baseline C-Peptide, Median: 800 mg daily oral
Protocol: as §1, with “water.” for “water. The effect of sodium 2-(3-pentylphenyl)acetate on liver histology in ALMS patients was also assessed by measuring the Non-Alcoholic Fatty Liver Disease (NAFLD) Fibrosis Score. Increased NAFLD fibrosis score may be associated with hepatic dysfunction.”

[4] = system: ALMS patients; experiment: Histological examination of adipocyte tissue artery (perivascular adipose tissue); conditions: an ALMS subject; after 24 weeks of treatment with 800 mg; FIG. 3B
Protocol: The study was a Phase 2, single-centre, single-arm, open-label study of sodium 2-(3-pentylphenyl)acetate administered at a total daily oral dose of 800 mg for up to 72 weeks in subjects with ALMS was undertaken. The initial duration of the study was 24 weeks, and subjects were offered to enrol into an extension phase of 36 or 48 weeks. The schedule of study procedures for the enrolment, intervention, and assessments for participants is outlined in FIG. 1. Sodium 2-(3-pentylphenyl)acetate was formulated in soft gelatine capsules containing 200 mg of Sodium 2-(3-pentylphenyl)acetate (amorphous powder) per capsule, polyethylene glycol 400, National Formulary (NF), hydrochloric acid (for pH adjustment), and water. Baseline histological examination of an adipocyte tissue artery (perivascular adipose tissue) in an ALMS subject was characterized by signs of dystrophy, homogenized blurred cytoplasm in smooth muscle cells, and nuclei with irregular shape (FIG. 3A).

[5] = Subject 826-001-001, 204-day break in treatment
[6] = Subject 826-001-007, 32-day break in treatment

What does the source list for CCCCCc1cccc(CC(=O)[O-])c1.[Na+] [sodium 2-(3-pentylphenyl)acetate]?
subjects in whom NAFLD fibrosis score decreased or did not change from baseline ([1]; 7/12 subjects): 58.3%; Change from Baseline NAFLD Score with an FPG > 5.6 mmol/L, Mean (SD) ([1]; EP Week 12 (Week 36), N=10): −0.39 (0.683); Change from Baseline NAFLD Score with an FPG > 5.6 mmol/L, Median ([1]; EP Week 12 (Week 36), N=10): −0.69; Change from Baseline NAFLD Score with an FPG > 5.6 mmol/L, Mean (SD) ([1]; EP Week 24 (Week 48), N=9): −0.34 (0.758); Change from Baseline NAFLD Score with an FPG > 5.6 mmol/L, Median ([1]; EP Week 24 (Week 48), N=9): −0.28; Change from Baseline NAFLD Score with an FPG > 5.6 mmol/L, Mean (SD) ([1]; EP Week 36 (Week 60), N=9): −0.16 (0.684); Change from Baseline NAFLD Score with an FPG > 5.6 mmol/L, Median ([1]; EP Week 36 (Week 60), N=9): −0.14; increase in NAFLD fibrosis score from baseline [1, 5]: 0.7; Change from Baseline NAFLD Score with an FPG > 5.6 mmol/L, Mean (SD) ([1]; Week 12, N=11): −0.35 (0.582); Change from Baseline NAFLD Score with an FPG > 5.6 mmol/L, Median ([1]; Week 12, N=11): −0.34; Change from Baseline NAFLD Score with an FPG > 5.6 mmol/L, Mean (SD) ([1]; Week 24, N=9): 0.16 (0.446); Change from Baseline NAFLD Score with an FPG > 5.6 mmol/L, Median ([1]; Week 24, N=9): 0.21; NAFLD Fibrosis Score in Subjects with an FPG > 5.6 mmol/L ([1]; EP Week 12 (Week 36)): −1.9 and −3.1 and −3.8 (4×) and −1.6 and −1.2 and 0.2 and −3.6; NAFLD Fibrosis Score in Subjects with an FPG > 5.6 mmol/L ([1]; EP Week 24 (Week 48)): −1.9 and −4.4 and −3.0 and −3.8 and −0.8 and −1.0 and −3.1 and 0.5 and −4.2; NAFLD Fibrosis Score in Subjects with an FPG > 5.6 mmol/L ([1]; EP Week 36 (Week 60)): −1.5 and −3.7 and −2.9 (2×) and −4.2 and −1.1 and 0.2 and −3.4 and −3.8; NAFLD Fibrosis Score in Subjects with an FPG > 5.6 mmol/L ([1]; Week 12): −2.5 and −1.8 and −3.9 (2×) and −3.1 and −1.4 and −0.8 (2×) and −3.3 and 0.6 and −4.3; NAFLD Fibrosis Score in Subjects with an FPG > 5.6 mmol/L ([1]; Week 24): −1.5 and −1.9 and −2.7 (2×) and −3.8 and −0.2 and −2.9 and −1.0 and −3.7; Change from Baseline ACR, Mean (SD) ([2]; EP Week 12 (Week 36), N=10): 6.19 (16.707) mg/mmol; Change from Baseline ACR, Median ([2]; EP Week 12 (Week 36), N=10): 1.25 mg/mmol; Change from Baseline ACR, Mean (SD) ([2]; EP Week 24 (Week 48), N=10): 13.30 (28.301) mg/mmol; Change from Baseline ACR, Median ([2]; EP Week 24 (Week 48), N=10): 1.30 mg/mmol; Change from Baseline ACR, Mean (SD) ([2]; EP Week 36 (Week 60), N=9): 21.32 (44.461) mg/mmol; Change from Baseline ACR, Median ([2]; EP Week 36 (Week 60), N=9): 1.60 mg/mmol; increase in ACR from baseline ([2]; Subject 826-001-003, 32-day break in treatment): 13.8 mg/mmol; increase in ACR from baseline [2, 6]: 133.8 mg/mmol; increase in ACR from baseline ([2]; Subject 826-001-013, 30-day break in treatment): 43.9 mg/mmol; Change from Baseline ACR, Mean (SD) ([2]; Week 12, N=12): 10.08 (20.848) mg/mmol; Change from Baseline ACR, Median ([2]; Week 12, N=12): 0.90 mg/mmol; Change from Baseline ACR, Mean (SD) ([2]; Week 24, N=11): 4.96 (14.993) mg/mmol; Change from Baseline ACR, Median ([2]; Week 24, N=11): 0.30 mg/mmol; ACR ([2]; EP Week 12 (Week 36)): 7.5 mg/mmol and 18.0 mg/mmol and 7.9 mg/mmol and 2.0 mg/mmol and 2.2 mg/mmol and 95.0 mg/mmol and <2.3 mg/mmol and 8.6 mg/mmol and 56.3 mg/mmol and 0.6 mg/mmol; ACR ([2]; EP Week 24 (Week 48)): 6.2 mg/mmol and 21.6 mg/mmol and 6.7 mg/mmol and 2.1 mg/mmol and 0.8 mg/mmol and 111.7 mg/mmol and 0.7 mg/mmol and 12.9 mg/mmol and 106.5 mg/mmol and <2.3 mg/mmol; ACR ([2]; EP Week 36 (Week 60)): 6.1 mg/mmol and 21.9 mg/mmol and 19.2 mg/mmol and <2.3 mg/mmol (2×) and 178.3 mg/mmol and 1.9 mg/mmol and 8.6 mg/mmol and 85.4 mg/mmol; ACR ([2]; Week 12): 4.3 mg/mmol and 22.5 mg/mmol and 24.3 mg/mmol and 14.5 mg/mmol and 0.4 mg/mmol and <2.3 mg/mmol (3×) and 89.2 mg/mmol and 15.1 mg/mmol and 102.9 mg/mmol and 15.6 mg/mmol; ACR ([2]; Week 24): 4.2 mg/mmol and 15.5 mg/mmol and 14.5 mg/mmol and 10.7 mg/mmol and 2.2 mg/mmol and 77.0 mg/mmol and <2.3 mg/mmol and 13.2 mg/mmol and 77.4 mg/mmol and 10.2 mg/mmol and 1.4 mg/mmol; Change from Baseline C-Peptide, Mean ([3]; EP Week 12 (Week 36), N=10): -350.90 pmol/L; Change from Baseline C-Peptide, Median ([3]; EP Week 12 (Week 36), N=10): 6.00 pmol/L; Change from Baseline C-Peptide, Mean ([3]; EP Week 24 (Week 48), N=9): -286.67 pmol/L; Change from Baseline C-Peptide, Median ([3]; EP Week 24 (Week 48), N=9): -40.00 pmol/L; Change from Baseline C-Peptide, Mean ([3]; EP Week 36 (Week 60), N=8): 219.88 pmol/L; Change from Baseline C-Peptide, Median ([3]; EP Week 36 (Week 60), N=8): -31.00 pmol/L; Change from Baseline C-Peptide, Mean ([3]; EP Week 48 (Week 72), N=3): 810.00 pmol/L; Change from Baseline C-Peptide, Median ([3]; EP Week 48 (Week 72), N=3): 737.00 pmol/L; increase in C-peptide from baseline [3, 5]: 817 pmol/L; increase in C-peptide from baseline ([3]; Subject 826-001-004, 30-day break in treatment): 1.757e+06 pmol/L; increase in C-peptide from baseline ([3]; Subject 826-001-005, 39-day break in treatment): 737 pmol/L; increase in C-peptide from baseline [3, 6]: 3580 pmol/L; Change from Baseline C-Peptide, Mean ([3]; Week 12, N=12): 473.50 pmol/L; Change from Baseline C-Peptide, Median ([3]; Week 12, N=12): 102.50 pmol/L; Change from Baseline C-Peptide, Mean ([3]; Week 24, N=12): 41.25 pmol/L; Change from Baseline C-Peptide, Median ([3]; Week 24, N=12): 84.50 pmol/L; histological examination of adipocyte tissue artery [4]: the adipocyte tissue artery looked more normal
